# In patent publication US12496267B2, “Extract of organic humified materials” (priority 2019, dated 2025):
# How the values were obtained:
# TNFα = test: Inflammation: reconstructed human epidermis/PBMC, MSD U-PLEX, TNFα; type: cell-based
# Description: (§1) Potential immune modulatory effects were determined on reconstructed human epidermis (RHE) using a 3D Skin Modell (Cell systems). In the first step the skin patches are stimulated with specific controls and stimuli for a defined time period. In this context it had to be considered that different stimuli require different incubation times. The incubation with heat inactivated C.acnes (10^7 cells/approach) as well as the direct incubation with the test substances (AHE/FA/BIS) was performed for 16h at 37° C. The AHE test substances comprised AHE solutions, comprising either 1%, 2% or 5% AHE in PBS, generated as described in Example 8. The incubation with the positive control (5% SDS) was performed for 20 min (37° C.). After the primary stimulation step skin patches were washed (PBS 3×300 μl) and subjected to a regeneration phase (24h/37° C.) in presence of the indicated substances (CM/AHE/FA/CH/BIS). After this incubation phase the culture medium of each approach was isolated and used to stimulate human PBMCs. Hereby 100 μl of the RHE culture was added cultures of human PBMCs (1×10^6 cells in 300 μl culture medium) and incubated for additional 16 h (37° C.). After this incubation step, PBMCs were separated by centrifugation and the supernatant was saved for the MSD multiplexing platform. In parallel the cells of the RHE culture were subjected to cell lysis (1% SDS, 30 min/4° C. agitation). Cell extracts were saved for the MSD multiplexing platform.
# (§2) Using the MSD U-PLEX it is possible to create an individualized multiplex assays for any combination of analytes. Hereby biotinylated capture reagents are coupled to U-PLEX Linkers. The U-PLEX Linkers then self-assemble onto unique spots on the U-PLEX plate. After analytes in the sample bind to the capture reagents, detection antibodies conjugated with electro-chemiluminescent labels (MSD GOLD SULFO-TAG) bind to the analytes to complete the sandwich immunoassay. Using this technology, the following markers were immobilized:
# (§3) U-PLEX Human IFN-γ, U-PLEX Human IL-16, U-PLEX Human IL-2, U-PLEX Human IL-4, U-PLEX Human IL-5, U-PLEX Human IL-6, U-PLEX Human IL-8, U-PLEX Human IL-12p70, U-PLEX Human IL-13, U-PLEX Human IL-17A, U-PLEX Human IL-17F, U-PLEX Human IL-22, U-PLEX Human IL-23, U-PLEX Human TNF-α. U-PLEX Human TGF-β1. All steps were performed according to the supplier's protocol.
# (§4) As described above, the Reconstructed human epidermis (RhE) was stimulated with the indicated substances and stimuli (Sample # Description, Tables 11-21) for 16 h. Upon this step the RhE was washed and in incubated in a second line with the indicated substances or culture medium. As controls, the RhE was treated in the first line with PBS and subsequently with culture medium. As further controls the PBMCs were treated with culture medium alone, with heat inactivated C. acnes and with pooled supernantant (SN) of the RhEs before stimulation. For Mesoscale analysis, the supernatant of the PBMC culture (PBMCs) was compared with a cell extract of the RhE prepared after the individual incubation steps (RhEs) and the supernatant of the RhEs after the stimulation steps (SN RhEs). RhE treated in the first and second line with culture medium (Rhe NC) can be used as negative control in all settings.
# IL-1β = test: Inflammation: reconstructed human epidermis/PBMC, MSD U-PLEX, IL-1β; type: cell-based
# Description: as §1, §2, §3, §4
# IL-4 = test: Inflammation: reconstructed human epidermis/PBMC, MSD U-PLEX, IL-4; type: cell-based; conditions: PBMCs (supernatant)
# Description: as §1
# as §2, with “immobilized: […]” for “immobilized:”
# IL-5 = test: Inflammation: reconstructed human epidermis/PBMC, MSD U-PLEX, IL-5; type: cell-based
# Description: as §1, §2, §3, §4
# IL-6 = test: Inflammation: reconstructed human epidermis/PBMC, MSD U-PLEX, IL-6; type: cell-based
# Description: as §1, §2, §3, §4
# IL-8 = test: Inflammation: reconstructed human epidermis/PBMC, MSD U-PLEX, IL-8; type: cell-based
# Description: as §1, §2, §3, §4
# IFN-γ = test: Inflammation: reconstructed human epidermis/PBMC, MSD U-PLEX, IFN-γ; type: cell-based
# Description: as §1, §2, §3, §4
# IL-12p70 = test: Inflammation: reconstructed human epidermis/PBMC, MSD U-PLEX, IL-12p70; type: cell-based
# Description: as §1, §2, §3
# As described above, the Reconstructed human epidermis (RhE) was stimulated with the indicated substances and stimuli (Sample # Description, Tables 11-21) for 16 h. Upon this step the RhE was washed and in incubated in a second line with the indicated substances or culture medium. As controls, the RhE was treated in the first line with PBS and subsequently with culture medium. […]
# IL-13 = test: Inflammation: reconstructed human epidermis/PBMC, MSD U-PLEX, IL-13; type: cell-based; conditions: PBMCs (supernatant)
# Description: as §1
# as §2, with “immobilized: […]” for “immobilized:”
# [1] = test system: human Keratinocyte cell line (HaCat); test: Wound healing: scratch of HaCat keratinocyte monolayer, regeneration over 72 h; type: cell-based; conditions: EGF 10 ng/ml; within 72 hours
# Description: (§5) A human Keratinocyte cell line (HaCat) was cultivated in 6 well plates to reach a dense cell layer. Subsequently the monolayer was injured with a mechanical device leading to a cross formed scratch in the monolayer. Upon scratching cells were washed once with PBS and treated with the test substances outlined above as well as with appropriate controls. The ingrowth of cells was monitored/documented for another 72 hours to the point where the cross formed injury of the monolayer was recovered with cells. At that point cells were washed and harvested. Cell extracts were generated by treatment with PBS/1% Triton X100 (30 min on ice). Subsequently cell extracts were analysed by SDS-PAGE/Western Blotting using antibodies directed towards the […] markers E-Cadherin and Paxillin (FIG. 10 and FIG. 11).
# Cells were treated with AHE solutions, comprising either 1% or 5% AHE in PBS (phosphate buffered saline). The dry extract was generated as described in Example 1, and then dissolved in PBS at 37° C. for 72 hours using a weight/volume ratio of 0.1 g/mL, 0.2 g/mL or 0.5 g/mL, respectively.
# For comparison, cells were also treated with Fulvic Acid and Charcoal, EGF was used as positive control, Medium without active substance was used as negative control.
# Paxillin = test: Western blot of Paxillin in scratched HaCat cells; type: cell-based, human; conditions: comparators: EGF; Fulvic Acid (1% per FIG. 10)
# Description: (§6) FIG. 10: HaCat cells were cultured as described. 72h after mechanical disruption, cells were lysed (PBS/1% Triton X100, 30 min, 4° C.) and subsequently subjected to SDS-PAGE/Western Blotting. Cell adhesion markers were determined with specific antibodies directed towards cell adhesion markers E-Cadherin and Paxillin. Reactivities were normalized using an antibody directed against the housekeeping protein Actin.
# as §6, with “11:” for “10:”, “Paxillin.” for “Paxillin. Reactivities were normalized using an antibody directed against the housekeeping protein Actin.”
# as §5, with “Upon scratching cells were washed once with PBS and treated with the test substances outlined above as well as with appropriate controls.” left out, “At that point cells were washed and harvested. Cell extracts were generated by treatment with PBS/1% Triton X100 (30 min on ice).” left out, “11). […]” for “11).”
# Keratin 10 = test: Skin barrier: Western blot of Cytokeratin 10 in HaCat 3-dimensional culture; type: cell-based, human; conditions: positive control EGF
# Description: FIG. 13: Western Blot Analysis with anti-Cytokeratin 10 was performed as described. The primary antibody (Keratin 10 (KRT10): Cusabio Technology CSB-PA445987) was used in a dilution of 1:1000. After the primary incubation step binding of the primary antibody was visualized with an anti-rabbit-IG conjugated to horse raddish peroxidase. Detection of Cytokeratin-10 with an apparent MW of 58 kDa was visualized using the ECL Technology in combination with a BioRad Gel documentation system.
# (§7) To determine the effects of the Alpine Heilmoor Extract on the stability of the membrane barrier, human Keratinocytes (HaCat) were analysed in a 3-dimensional cell culture system. Hereby, cells (5×10^4/insert) were seeded on culture inserts of the system and cultivated in 24 well plates for 14 days with medium exchange in 3-day intervals and permanent monitoring of the TEER value. Reaching a constant TEER value cells were stimulated with heat inactivated C. acnes (10^7 cells/well) for 16 h. Subsequently, cells were washed and incubated with described 2nd line substances (i.e. AHE solutions, comprising either 1%, 2% or 5% AHE in PBS, generated as described in Example 8) for 24 hours. […]
# (§8) Effects of the indicated stimuli/second line substances were evaluated by determination of the expression levels of membrane markers Cytokeratin 10/Cytokeratin 16/Fillagrin and Ki67. […]
# Keratin 16 = test: Skin barrier: Western blot of Cytokeratin 16 in HaCat 3-dimensional culture; type: cell-based, human
# Description: FIG. 14: Western Blot Analysis with anti-Cytokeratin 16 was performed as described. The primary antibody (Keratin 16 (KRT16): Cusabio Technology CSB-PA012515LA01Hu) was used in a dilution of 1:500. After the primary incubation step binding of the primary antibody was visualized with an anti-rabbit-IG conjugated to horse raddish peroxidase. Detection of Cytokeratin-16 with an apparent MW of 51 kDa was visualized using the ECL Technology in combination with a BioRad Gel documentation system.
# as §7, §8
# [2] = test system: human colorectal cells (CaCo2); test: Membrane barrier enhancement: TEER of CaCo2 3-dimensional culture; type: cell-based; conditions: EGF
# Description: To determine the effects of the test substances on the stability on the human gut barrier, human colorectal cells (CaCo2) were analysed in a 3-diemsional cell culture system. Cells (5×10^4/insert) were seeded on culture inserts of the system and cultivated in 24 well plates for 14 days with medium exchange in 3-day intervals and permanent monitoring of the TEER value. […] Subsequently, cells were washed and incubated with described 2nd line substances (i.e. AHE solutions, comprising either 1%, 2% or 5% AHE in PBS, generated as describe din Example 8) for 24 hours. After this step cells were washed and cell extracts were prepared by incubation with PBS/1% Triton X100. Cell extracts are ready for SDS-PAGE/Western Blotting.
# [3] = PBMCs (supernatant), RhE C. acnes-stimulated, then substance, 1%
# [4] = PBMCs (supernatant), RhE without C. acnes, 1%
# [5] = SN RhEs, RhE C. acnes-stimulated, then substance, 1%
# [6] = SN RhEs, RhE without C. acnes, 1%
# [7] = RhE C. acnes-stimulated, then substance, 1%
# [8] = RhEs (cell extract), RhE without C. acnes, 1%
# [9] = PBMCs (supernatant), RhE 5% SDS, then culture medium
# [10] = RhE 5% SDS, then culture medium
# [11] = SN RhEs, RhE 5% SDS, then culture medium
compound,measurement,setting,value
CC(C)=CCC[C@](C)(O)C1CC=C(C)CC1 (stereo partly shown) [Bisabolol],TNFα concentration,TNFα; [3],51.6 pg/mL
same,TNFα concentration,TNFα; [4],29.8 pg/mL
same,TNFα concentration,TNFα; [5],8.6 pg/mL
same,TNFα concentration,TNFα; [6],17.1 pg/mL
same,IL-1β concentration,IL-1β; [3],1525 pg/mL
same,IL-1β concentration,IL-1β; [4],1277 pg/mL
same,IL-1β concentration,IL-1β; [5],8.5 pg/mL
same,IL-1β concentration,IL-1β; [6],5.4 pg/mL
same,IL-4 concentration,IL-4; [7],10.1 pg/mL
same,IL-4 concentration,"IL-4; RhE without C. acnes, 1%",9.1 pg/mL
same,IL-5 concentration,IL-5; [3],24.1 pg/mL
same,IL-5 concentration,IL-5; [4],18.2 pg/mL
same,IL-5 concentration,IL-5; [5],1.1 pg/mL
same,IL-5 concentration,IL-5; [6],0.0 pg/mL
same,IL-6 concentration,IL-6; [3],13038.0 pg/mL
same,IL-6 concentration,IL-6; [4],12302.5 pg/mL
same,IL-6 concentration,IL-6; [5],75.1 pg/mL
same,IL-6 concentration,IL-6; [6],30.8 pg/mL
same,IL-8 concentration,IL-8; [3],43765.9 pg/mL
same,IL-8 concentration,IL-8; [4],44123.3 pg/mL
same,IL-8 concentration,"IL-8; RhEs (cell extract), RhE C. acnes-stimulated, then substance, 1%",58.1 pg/mL
same,IL-8 concentration,IL-8; [8],68.9 pg/mL
same,IL-8 concentration,IL-8; [5],4317.3 pg/mL
same,IL-8 concentration,IL-8; [6],2459.3 pg/mL
same,INF-y concentration,IFN-γ; [3],124.4 pg/mL
same,INF-y concentration,IFN-γ; [4],90.5 pg/mL
same,INF-y concentration,IFN-γ; [8],8.3 pg/mL
same,INF-y concentration,IFN-γ; [5],13.9 pg/mL
same,IL-12p70 concentration,IL-12p70; [3],69.9 pg/mL
same,IL-12p70 concentration,IL-12p70; [4],51.3 pg/mL
same,IL-12p70 concentration,IL-12p70; [5],3.3 pg/mL
same,IL-13 concentration,IL-13; [7],186.6 pg/mL
same,IL-13 concentration,"IL-13; RhE without C. acnes, 1%",157.9 pg/mL
"CCCCCCCCCCCCOS(=O)(=O)[O-].[Na+] [Rhe PC, SDS]",TNFα concentration,TNFα; [9],24.0 pg/mL
same,IL-1β concentration,IL-1β; [9],1133 pg/mL
same,IL-4 concentration,IL-4; [10],9.0 pg/mL
same,IL-5 concentration,IL-5; [9],25.4 pg/mL
same,IL-5 concentration,IL-5; [11],1.0 pg/mL
same,IL-6 concentration,IL-6; [9],12909.3 pg/mL
same,IL-6 concentration,IL-6; [11],0.3 pg/mL
same,IL-8 concentration,IL-8; [9],43111.6 pg/mL
same,IL-8 concentration,"IL-8; RhEs (cell extract), RhE 5% SDS, then culture medium",33.5 pg/mL
same,IL-8 concentration,IL-8; [11],77.2 pg/mL
same,INF-y concentration,IFN-γ; [9],114.7 pg/mL
same,IL-12p70 concentration,IL-12p70; [9],63.0 pg/mL
same,IL-13 concentration,IL-13; [10],220.6 pg/mL
EGF: positive control (10 ng/ml in Example 8),regeneration of scratched keratinocyte monolayer,[1],regenerated well
same,expression of cell adhesion molecule Paxillin,Paxillin,also observed
same,Cytokeratin 10 band (58 kDa),Keratin 10,induction
same,Cytokeratin 16 specific band (51 kDa),Keratin 16; EGF,detected
same,anti-Cytokeratin 16 reactive protein complex at about 75 kDa,Keratin 16; positive control EGF,visible
same,TEER value,[2]; D15 (1 d after stimulation with IL1alpha/TNF-alpha),4800 Ω/cm^2
same,TEER value,[2]; D15 (non stimulated controls),4000 Ω/cm^2
same,TEER value,[2]; D17 (after regeneration phase with extracts: non stimulated controls),7200 Ω/cm^2
same,TEER value,[2]; D17 (after regeneration phase with extracts: stimulated skin),9600 Ω/cm^2
